Assay results published in patent publication US11918582B2 (RAPT Therapeutics, Inc., priority 2021, dated 2024).
pIC50: −log10 of the molar value. Where a name gives a salt, the structure may show the parent alone.

Biological target: T1, human HPK1 (MAP4K1) (Homo sapiens, UniProt Q92918)
T1 construct: Recombinant human HPK1 kinase domain was obtained from ThermoFisher (Cat. #PV6357) and SignalChem (Cat. #M23-11G); purchased ThermoFisher; SignalChem PV6357; M23-11G
T1 sequence (Q92918 17-274 limits assumed): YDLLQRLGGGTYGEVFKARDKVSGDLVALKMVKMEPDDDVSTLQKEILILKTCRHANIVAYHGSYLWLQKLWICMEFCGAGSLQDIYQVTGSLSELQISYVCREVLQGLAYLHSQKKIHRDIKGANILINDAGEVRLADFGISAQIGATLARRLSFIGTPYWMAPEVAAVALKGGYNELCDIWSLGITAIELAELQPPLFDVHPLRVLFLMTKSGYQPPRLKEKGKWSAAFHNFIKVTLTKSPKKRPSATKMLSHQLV
Assay: Biochemical assay for activity against HPK1 (ADP-Glo, MBP substrate)
Conditions: recombinant human HPK1 kinase domain, 1 nM enzyme, ADP-Glo luminescence
Source text: These compounds are made by the synthetic methods described earlier herein. Example 227 Biochemical Assay for Testing Compounds for Activity against HPK1
The enzymatic activity of human HPK1 (MAP4K1) was monitored in a biochemical assay in the presence or absence of compounds, using a peptide substrate (myelin basic protein, MBP), with an ADP-Glo assay kit (Promega, Cat. #V9103). An increase in phosphorylation of the peptide by HPK1 was indicative of its kinase activity.
Recombinant human HPK1 kinase domain was obtained from ThermoFisher (Cat. #PV6357) and SignalChem (Cat. #M23-11G). A 1 nM HPK1 kinase enzyme solution was prepared from the HPK1 stock received from the commercial supplier using an assay buffer containing 50 mM HEPES (4-(2-hydroxyethyl)-1-piperazineethanesulfonic acid) pH 7.5 (Fisher Scientific, Cat. #H1035), 150 mM NaCl (Fisher Scientific, Cat. #50843067), 3 mM TCEP-HCl (Tris(2-carboxyethyl)phosphine hydrochloride; Fisher Scientific, Cat. #PIPG82080), 10 mM MgCl2 (Fisher Scientific, Cat. #AM9530G), 0.005% Tween-20 (Fisher Scientific, Cat. #BP337500) and 0.01% BSA (bovine serum albumin; ThermoFisher, Cat. #15260037), in ultra-pure water. The final concentration of the assay buffer was 770 nM. A 5 mM stock solution of the peptide substrate was prepared using […] MBP (Myelin Basic Protein, Active Motif, Cat. #31314), 10 mM ATP (adenosine 5′-triphosphate; Sigma-Aldrich, Cat. #GE27-2056-01) and of assay buffer.
Test compounds were dissolved in DMSO (dimethyl sulfoxide) at 10 mM and then serial dilutions were prepared using a ViaFlow assist multichannel dispenser (Integra ViaFlo). 20 nL of test compounds at various concentrations were dispensed into a 1536-well assay plate (Corning Cat. #7247) using an Echo Nanoliter dispenser (Labcyte ECHO 550). […] of a 1 nM solution of HPK1 kinase enzyme diluted in assay buffer was added to the compound-containing plate using a Mantis Microliter dispenser (Formulatrix Mantis), covered with a lid, and incubated for 15 minutes at room temperature. 50 nL of a 5 mM stock solution of the peptide substrate (MBP) were added using the Echo Nanoliter dispenser. The plate was covered with a lid, centrifugated at 500 rpm for 1 minute and incubated for 2 hours at room temperature. […] of ADP-Glo reagent A was added using the Mantis Microliter dispenser, centrifugated at 500 rpm for 30 seconds and incubated for 40 minutes at room temperature. […] of ADP-Glo reagent B was added using the Mantis Microliter dispenser, centrifugated at 500 rpm for 30 seconds and incubated for 30 minutes at room temperature. Peptide phosphorylation was measured by luminescence on an Envision plate reader (PerkinElmer).
The HPK1 biochemical IC50 activity levels of the compounds of Examples 1-225 were tested using this assay and are shown in Table 2.

Row | Structure (SMILES) | pIC50
1 | COc1cc2c(cc1Nc1ncc3cnn(C4CC5(CCN(C(C)=O)CC5)C4)c3n1)CN(C)CC2 [Example 81, 1-(2-(6-((6-methoxy-2-methyl-1,2,3,4-tetrahydroisoquinolin-7-yl)amino)-1H-pyrazolo[3,4-d]pyrimidin-1-yl)-7-azaspiro[3.5]nonan-7-yl)ethan-1-one] | > 7.00
2 | COc1cc2c(cc1Nc1ncc3c(C)nn([C@H]4CC[C@@H](O)CC4)c3n1)CN(C)CC2 [Example 45, (cis)-4-(6-((6-methoxy-2-methyl-1,2,3,4-tetrahydroisoquinolin-7-yl)amino)-3-methyl-1H-pyrazolo[3,4-d]pyrimidin-1-yl)cyclohexan-1-ol] | > 7.00
3 | CC(CO)n1ncc2cnc(Nc3ccc4c(c3)CN(C)CC4)nc21 (stereo not drawn) [Example 10, 2-[6-[(2-methyl-3,4-dihydro-1H-isoquinolin-7-yl)amino]pyrazolo[3,4-d]pyrimidin-1-yl]propan-1-ol trifluoroacetate] | > 7.00
4 | COC(C)(C)CCn1ncc2cnc(Nc3ccc4c(c3)CN(C)CC4)nc21 [Example 11, N-(1-(3-methoxy-3-methylbutyl)-1H-pyrazolo[3,4-d]pyrimidin-6-yl)-2-methyl-1,2,3,4-tetrahydroisoquinolin-7-amine] | > 7.00
5 | COc1cc2c(cc1Nc1ncc3cnn(CC[C@@H](C)O)c3n1)CN(C)CC2 [Example 83, (2R)-4-[6-[(6-methoxy-2-methyl-3,4-dihydro-1H-isoquinolin-7-yl)amino]pyrazolo[3,4-d]pyrimidin-1-yl]butan-2-ol] | > 7.00
6 | COc1cc2c(cc1Nc1ncc3cnn(C[C@@H]4C[C@H](C)CN4C(C)=O)c3n1)CN(C)CC2 [Example 136, 1-((2S,4S)-2-((6-((6-methoxy-2-methyl-1,2,3,4-tetrahydroisoquinolin-7-yl)amino)-1H-pyrazolo[3,4-d]pyrimidin-1-yl)methyl)-4-methylpyrrolidin-1-yl)ethan-1-one] | 6.60 to 7.00
7 | COc1cc2c(cc1Nc1ncc3cnn([C@H]4C[C@H](CNC(C)=O)C4)c3n1)CN(C)CC2 [Example 122, N-((trans-3-(6-((6-methoxy-2-methyl-1,2,3,4-tetrahydroisoquinolin-7-yl)amino)-1H-pyrazolo[3,4-d]pyrimidin-1-yl)cyclobutyl)methyl)acetamide 2,2,2-trifluoroacetate] | > 7.00
8 | CNC(=O)[C@H]1CC[C@H](n2ncc3cnc(Nc4cc5c(cc4OC)CCN(C)C5)nc32)C1 (racemic) [Example 43, rac-(1S,3S)-3-(6-((6-methoxy-2-methyl-1,2,3,4-tetrahydroisoquinolin-7-yl)amino)-1H-pyrazolo[3,4-d]pyrimidin-1-yl)-N-methylcyclopentane-1-carboxamide] | > 7.00

More lines, now with the values ahead:

Row | pIC50 | Structure (SMILES)
9 | > 7.00 | COc1cc2c(cc1Nc1ncc3cnn([C@H]4CCC[C@@H](O)C4)c3n1)CN(C)CC2 (relative stereo) [Example 23, cis-3-(6-((6-methoxy-2-methyl-1,2,3,4-tetrahydroisoquinolin-7-yl)amino)-1H-pyrazolo[3,4-d]pyrimidin-1-yl)cyclohexan-1-ol]
10 | > 7.00 | COc1cc2c(cc1Nc1ncc3cnn(C[C@@H]4CCCC[C@H]4CO)c3n1)CN(C)CC2 (racemic) [Example 165, [rac-trans-2-[[6-[(6-methoxy-2-methyl-3,4-dihydro-1H-isoquinolin-7-yl)amino]pyrazolo[3,4-d]pyrimidin-1-yl]methyl]cyclohexyl]methanol]
11 | > 7.00 | COc1cc2c(cc1Nc1ncc3cnn(CC4(C)CC4)c3n1)CN(C)CC2 [Example 203, 6-methoxy-2-methyl-N-(1-((1-methylcyclopropyl)methyl)-1H-pyrazolo[3,4-d]pyrimidin-6-yl)-1,2,3,4-tetrahydroisoquinolin-7-amine]
12 | > 7.00 | COc1cc2c(cc1Nc1ncc3cnn(C4CCCCC4)c3n1)CN(C)CC2 [Example 33, N-(1-cyclohexyl-1H-pyrazolo[3,4-d]pyrimidin-6-yl)-6-methoxy-2-methyl-1,2,3,4-tetrahydroisoquinolin-7-amine]
